How the values were obtained:
Rattus norvegicus [1] = experiment: Inhibition of Tumor necrosis factor alpha production after i.v. dose of 0.01-0.1 mg/10 mL/kg in 6-8 weeks old rats.; format: functional; conditions: for ED50: Rattus norvegicus, iv, read-out: ID50 (the source's name)
Mus musculus [2] = experiment: Tested for inhibition of Tumor necrosis factor alpha production in 8 weeks old mice after intravenous dosage of 0.01-0.1 mg/10 mL/kg; format: functional; conditions: for ED50: Mus musculus, iv, read-out: ID50 (the source's name)
Mus musculus [3] = experiment: Tested for inhibition of Tumor necrosis factor alpha production after intravenous dosage of 10 mg/kg to 8 weeks old mice; format: functional
Rattus norvegicus [4] = experiment: Tested for inhibition of Tumor necrosis factor alpha production (po) in rats; format: functional; conditions: read-out: ID50 (the source's name)
Rattus norvegicus [5] = experiment: Tested for inhibition of Tumor necrosis factor alpha production after intravenous dosage of 10 mg/kg to 6-8 weeks old rats; format: functional
Rattus norvegicus [6] = experiment: Tested for inhibition of Tumor necrosis factor alpha production after intravenous dosage of 30 mg/kg to 6-8 weeks old rats pretreated with saline; format: functional
Rattus norvegicus [7] = experiment: Tested for inhibition of Tumor necrosis factor alpha production after intravenous dosage of 10 mg/kg to 6-8 weeks old rats
Mus musculus [8] = experiment: Tested for inhibition of Tumor necrosis factor alpha production after intravenous dosage of 30 mg/kg to 8 weeks old mice; format: functional

SMILES: CCCCCCCC(=O)NC(COP(=O)([O-])[O-])c1cccc(Cl)c1.[Na+].[Na+] (stereo not given)
- ED50 (Rattus norvegicus [1]): 5.2 mg/kg

SMILES: CCCCCCCC(=O)N[C@@H](COP(=O)([O-])[O-])c1cccc(OC)c1.[Na+].[Na+]
- ED50 (Mus musculus [2]): 0.26 mg/kg

SMILES: CCCCCC(=O)N[C@@H](COP(=O)([O-])[O-])c1ccccc1.[Na+].[Na+]
- ED50 (Mus musculus [2]): 30 mg/kg
- ED50 (Rattus norvegicus [1]): 50 mg/kg

SMILES: CCCCCCC(=O)N[C@@H](COP(=O)([O-])[O-])c1ccccc1.[Na+].[Na+]
- ED50 (Mus musculus [2]): 2.8 mg/kg
- ED50 (Rattus norvegicus [1]): 4.5 mg/kg

SMILES: O=C(CCCCc1ccccc1)N[C@@H](COP(=O)(O)O)c1ccccc1
- inhibition in vivo at 10 mg/kg (Mus musculus [3]): 27%

SMILES: CCCCCCCC(=O)N[C@@H](COP(=O)([O-])[O-])c1ccccc1.[Na+].[Na+]
- ED50 (Mus musculus [2]): 0.8 mg/kg
- ED50 (Rattus norvegicus [4]): 103 mg/kg
- ED50 (Rattus norvegicus [1]): 3 mg/kg

SMILES: O=C(N[C@@H](COP(=O)([O-])[O-])c1ccccc1)c1ccccc1.[Na+].[Na+]
- ED50 (Mus musculus [3]; read-out: ID50 (the source's name)): 32 mg/kg

SMILES: CCCCCCCC(=O)NC(COP(=O)(O)O)c1ccc(OC)cc1 (stereo not given)
- inhibition in vivo at 10 mg/kg (Rattus norvegicus [5]): 34%

SMILES: CCCCCCNC(=O)N[C@@H](COP(=O)(O)O)c1ccccc1
- inhibition in vivo at 10 mg/kg (Mus musculus [3]): 58%

SMILES: CCCCCCCC(=O)N[C@H](COP(=O)([O-])[O-])c1cccc(OC)c1.[Na+].[Na+]
- ED50 (Rattus norvegicus [1]): 1.6 mg/kg

SMILES: CCCCCCCC(=O)NC(COP(=O)([O-])[O-])c1cccc(OCC)c1.[Na+].[Na+] (stereo not given)
- ED50 (Rattus norvegicus [1]): 0.2 mg/kg

SMILES: CCCCCCCC(=O)NC(COP(=O)([O-])[O-])c1cccc(O)c1.[Na+].[Na+] (stereo not given)
- ED50 (Rattus norvegicus [1]): 1.4 mg/kg

SMILES: CCCCCCCC(=O)NC(COP(=O)([O-])[O-])c1cccc(OC2CCC2)c1.[Na+].[Na+] (stereo not given)
- ED50 (Rattus norvegicus [1]): 0.9 mg/kg

SMILES: CCCCCCCC(=O)N[C@H](COP(=O)([O-])[O-])c1ccccc1.[Na+].[Na+]
- ED50 (Rattus norvegicus [1]): 10 mg/kg

SMILES: CCCCCCCC(=O)NC(COP(=O)(O)O)c1cccc(OC2CCCC2)c1 (stereo not given)
- inhibition in vivo at 10 mg/kg (Rattus norvegicus [5]): 7%

SMILES: CCCCCCCC(=O)NC(COP(=O)([O-])[O-])c1ccccc1C.[Na+].[Na+] (stereo not given)
- ED50 (Rattus norvegicus [1]): 2 mg/kg

SMILES: CCCCCCCCCCC(=O)N[C@@H](COP(=O)(O)O)c1ccccc1
- inhibition in vivo at 10 mg/kg (Mus musculus [3]): 50%

SMILES: CC(=O)N[C@@H](COP(=O)(O)O)c1ccccc1
- inhibition in vivo at 10 mg/kg (Mus musculus [3]): 28%
- inhibition in vivo at 30 mg/kg (Rattus norvegicus [6]): 21%

SMILES: CCCCCCCC(=O)NC(COP(=O)([O-])[O-])c1cc(OC)cc(OC)c1.[Na+].[Na+] (stereo not given)
- ED50 (Rattus norvegicus [1]): 3.8 mg/kg

SMILES: CCCCCCCC(=O)NC(COP(=O)([O-])[O-])c1cccc(OCC(C)C)c1.[Na+].[Na+] (stereo not given)
- ED50 (Rattus norvegicus [1]): 33 mg/kg

SMILES: CCCCCCCC(=O)NC(COP(=O)(O)O)c1ccccc1Cl (stereo not given)
- inhibition in vivo at 10 mg/kg (Rattus norvegicus [5]): 46%

SMILES: CCCCCCCC(=O)NC(COP(=O)([O-])[O-])c1cccc(C)c1.[Na+].[Na+] (stereo not given)
- ED50 (Rattus norvegicus [1]): 53 mg/kg

SMILES: CCCCCCC(C)C(=O)N[C@@H](COP(=O)([O-])[O-])c1ccccc1.[Na+].[Na+] (single isomer, unassigned; more polar)
- ID50 (Mus musculus [2]): 2.4 mg/kg
- ID50 (Rattus norvegicus [1]): 1.7 mg/kg

SMILES: CCCCCCCC(=O)NC(COP(=O)([O-])[O-])c1cccc(OC(C)C)c1.[Na+].[Na+] (stereo not given)
- ED50 (Rattus norvegicus [1]): 0.1 mg/kg

SMILES: CCCCCCCC(=O)NC(COP(=O)(O)O)c1ccccc1OC (stereo not given)
- inhibition in vivo at 10 mg/kg (Rattus norvegicus [7]): 55%

SMILES: CCCCCCCC(=O)NC(COP(=O)([O-])[O-])c1cccc(OCCC)c1.[Na+].[Na+] (stereo not given)
- ED50 (Rattus norvegicus [1]): 0.7 mg/kg

SMILES: CCCCCCC(C)(C)C(=O)N[C@@H](COP(=O)(O)O)c1ccccc1
- inhibition in vivo at 10 mg/kg (Mus musculus [3]): 56%

SMILES: CCCCCCOC(=O)N[C@@H](COP(=O)([O-])[O-])c1ccccc1.[Na+].[Na+]
- ED50 (Mus musculus [2]): 1.1 mg/kg
- ED50 (Rattus norvegicus [1]): 3.2 mg/kg

SMILES: CCCCCCCC(=O)NC(COP(=O)([O-])[O-])c1cccc(OC)c1.[Na+].[Na+] (stereo not given)
- ED50 (Rattus norvegicus [1]): 0.5 mg/kg

SMILES: CCCC(=O)N[C@@H](COP(=O)(O)O)c1ccccc1
- inhibition in vivo at 10 mg/kg (Mus musculus [3]): 17%
- inhibition in vivo at 30 mg/kg (Rattus norvegicus [6]): 37%

SMILES: CCCCCCCC(=O)NC(COP(=O)([O-])[O-])c1cccc(SC(C)C)c1.[Na+].[Na+] (stereo not given)
- ED50 (Rattus norvegicus [1]): 0.21 mg/kg

SMILES: CCCCCCCC(=O)NC(COP(=O)(O)O)c1ccc(Cl)cc1 (stereo not given)
- inhibition in vivo at 10 mg/kg (Rattus norvegicus [5]): -118%

SMILES: CCCC(CCC)C(=O)N[C@@H](COP(=O)(O)O)c1ccccc1
- inhibition in vivo at 30 mg/kg (Mus musculus [8]): 36%

SMILES: CCCCCCCC(=O)NC(COP(=O)([O-])[O-])c1cccc(SC)c1.[Na+].[Na+] (stereo not given)
- ED50 (Rattus norvegicus [1]): 0.56 mg/kg

SMILES: CCCCCCC(C)C(=O)N[C@@H](COP(=O)([O-])[O-])c1ccccc1.[Na+].[Na+] (stereo in doubt)
- ED50 (Mus musculus [2]): 4.2 mg/kg
- ID50 (Rattus norvegicus [1]): 8 mg/kg

SMILES: CCCCCCCC(=O)NC(COP(=O)(O)O)c1ccc(C)cc1 (stereo not given)
- inhibition in vivo at 10 mg/kg (Rattus norvegicus [5]): 44%
